Data: ChEMBL document CHEMBL5038622, “p-Terphenyls as Anti-HSV-1/2 Agents from a Deep-Sea-Derived Penicillium sp” (J Nat Prod, 2021)
Activity calls are given as the source filed them. The rule behind the calls is not given here.

Tests used:
Human alphaherpesvirus 1 [1] = assay: Antiviral activity against HSV-1 infected in African green monkey Vero cells assessed as inhibition of viral replication incubated for 3 days by MTT assay; type: functional, organism-based; conditions: Human alphaherpesvirus 1, Vero, 72 h
[2] = Cytotoxicity against African green monkey Vero cells assessed as reduction in cell viability incubated for 3 days by MTT assay; type: toxicity, cell-based; conditions: chlorocebus sabaeus, time 3 day
HSV-1 = assay: Selectivity index, ratio of CC50 for african green monkey Vero cells to EC50 for HSV-1 infected in African green monkey Vero cells; type: toxicity; conditions: HSV-1 infected Vero cells
Human alphaherpesvirus 2 [3] = assay: Antiviral activity against HSV-2 infected in African green monkey Vero cells assessed as inhibition of viral replication incubated for 3 days by MTT assay; type: functional, organism-based; conditions: Human alphaherpesvirus 2, Vero, 72 h
HSV-2 = assay: Selectivity index, ratio of CC50 for african green monkey Vero cells to EC50 for HSV-2 infected in African green monkey Vero cells; type: toxicity; conditions: HSV-2 infected Vero cells
Dengue virus = assay: Antiviral activity against Dengue virus at 20 uM; type: functional, organism-based
Human alphaherpesvirus 1 [4] = assay: Antiviral activity against HSV-1 infected in African green monkey Vero cells assessed as inhibition of syncytium formation at 0.63 to 10 uM coinfected for 1 hr and measured after 24 hrs by H&E staining based optical microscopic analysis; type: functional, organism-based; conditions: dose 0.63-10 µM, time 25.0 hrs
Human alphaherpesvirus 1 [5] = assay: Antiviral activity against HSV-1 infected in African green monkey Vero cells assessed as reduction in plague formation at 10 uM measured after 48 hrs by crystal violet staining based plaque formation assay; type: functional, organism-based
Human alphaherpesvirus 1 [6] = assay: Antiviral activity against HSV-1 infected in African green monkey Vero cells assessed as reduction in virus-induced cytopathic effect measured after 48 hrs by MTT assay; type: functional, organism-based; conditions: dose 0.63-10 µM
Human alphaherpesvirus 2 [7] = assay: Antiviral activity against HSV-2 infected in African green monkey Vero cells assessed as reduction in virus-induced cytopathic effect measured after 48 hrs by MTT assay; type: functional, organism-based; conditions: dose 0.63-10 µM
Human alphaherpesvirus 1 [8] = assay: Antiviral activity against HSV-1 infected in African green monkey Vero cells assessed as reduction in plague formation measured after 48 hrs by crystal violet staining based plaque formation assay; type: functional, organism-based; conditions: dose 0.63-10 µM
Human alphaherpesvirus 2 [9] = assay: Antiviral activity against HSV-2 infected in African green monkey Vero cells assessed as reduction in plague formation measured after 48 hrs by crystal violet staining based plaque formation assay; type: functional, organism-based; conditions: dose 0.63-10 µM
Human alphaherpesvirus 1 [10] = assay: Antiviral activity against HSV-1 infected in African green monkey Vero cells assessed as reduction in virus induced glycoprotein D gene expression measured after 48 hrs by qRT-PCR analysis; type: functional, organism-based; conditions: dose 0.63-10 µM
Human alphaherpesvirus 1 [11] = assay: Antiviral activity against HSV-1 infected in African green monkey Vero cells assessed as reduction in virus induced VP16 gene expression measured after 48 hrs by qRT-PCR analysis; type: functional, organism-based; conditions: dose 0.63-10 µM
Human alphaherpesvirus 2 [12] = assay: Antiviral activity against HSV-2 infected in African green monkey Vero cells assessed as reduction in virus induced glycoprotein D gene expression measured after 48 hrs by qRT-PCR analysis; type: functional, organism-based; conditions: dose 0.63-10 µM
Human alphaherpesvirus 2 [13] = assay: Antiviral activity against HSV-2 infected in African green monkey Vero cells assessed as reduction in virus induced VP16 gene expression measured after 48 hrs by qRT-PCR analysis; type: functional, organism-based; conditions: dose 0.63-10 µM
Human alphaherpesvirus 1 [14] = assay: Antiviral activity against HSV-1 infected in African green monkey Vero cells assessed as reduction in virus induced gD protein expression at 2.5 uM by western blot analysis; type: functional, organism-based
Human alphaherpesvirus 2 [15] = assay: Antiviral activity against HSV-2 infected in African green monkey Vero cells assessed as reduction in virus induced gD protein expression at 1.3 uM by western blot analysis; type: functional, organism-based
Human alphaherpesvirus 2 [16] = assay: Antiviral activity against HSV-2 infected in African green monkey Vero cells assessed as reduction in gD protein expression under co-treatment condition by western blot analysis; type: functional, organism-based
Human alphaherpesvirus 2 [17] = assay: Antiviral activity against HSV-2 infected in African green monkey Vero cells assessed as inhibition of syncytium formation at 0.63 to 10 uM coinfected for 1 hr and measured after 24 hrs by H&E staining based optical microscopic analysis; type: functional, organism-based; conditions: dose 0.63-10 µM, time 25.0 hrs
Zika virus = assay: Antiviral activity against Zika virus at 20 uM; type: functional, organism-based
[18] = target: T1, Pancreatic triacylglycerol lipase (Homo sapiens) (UniProt P16233); assay: Inhibition of pancreatic lipase (unknown origin) at 100 uM
T1 sequence (whole entry): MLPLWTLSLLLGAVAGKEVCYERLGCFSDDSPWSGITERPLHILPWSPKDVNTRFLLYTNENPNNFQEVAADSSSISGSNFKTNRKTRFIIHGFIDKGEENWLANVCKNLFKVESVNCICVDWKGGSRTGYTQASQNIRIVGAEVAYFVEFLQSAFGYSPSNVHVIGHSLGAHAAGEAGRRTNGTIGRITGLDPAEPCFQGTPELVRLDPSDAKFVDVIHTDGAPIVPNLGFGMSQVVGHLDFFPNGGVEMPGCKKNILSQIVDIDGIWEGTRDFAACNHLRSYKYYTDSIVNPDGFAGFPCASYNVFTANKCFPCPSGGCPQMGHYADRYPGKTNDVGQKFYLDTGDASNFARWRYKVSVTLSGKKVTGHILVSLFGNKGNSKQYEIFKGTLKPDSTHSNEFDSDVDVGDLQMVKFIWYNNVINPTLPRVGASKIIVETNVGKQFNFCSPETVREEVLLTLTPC

Acetylcholinesterase = Acetylcholinesterase (Homo sapiens, UniProt P22303); assay: Inhibition of AChE (unknown origin)
Chain of Acetylcholinesterase (P22303 whole entry): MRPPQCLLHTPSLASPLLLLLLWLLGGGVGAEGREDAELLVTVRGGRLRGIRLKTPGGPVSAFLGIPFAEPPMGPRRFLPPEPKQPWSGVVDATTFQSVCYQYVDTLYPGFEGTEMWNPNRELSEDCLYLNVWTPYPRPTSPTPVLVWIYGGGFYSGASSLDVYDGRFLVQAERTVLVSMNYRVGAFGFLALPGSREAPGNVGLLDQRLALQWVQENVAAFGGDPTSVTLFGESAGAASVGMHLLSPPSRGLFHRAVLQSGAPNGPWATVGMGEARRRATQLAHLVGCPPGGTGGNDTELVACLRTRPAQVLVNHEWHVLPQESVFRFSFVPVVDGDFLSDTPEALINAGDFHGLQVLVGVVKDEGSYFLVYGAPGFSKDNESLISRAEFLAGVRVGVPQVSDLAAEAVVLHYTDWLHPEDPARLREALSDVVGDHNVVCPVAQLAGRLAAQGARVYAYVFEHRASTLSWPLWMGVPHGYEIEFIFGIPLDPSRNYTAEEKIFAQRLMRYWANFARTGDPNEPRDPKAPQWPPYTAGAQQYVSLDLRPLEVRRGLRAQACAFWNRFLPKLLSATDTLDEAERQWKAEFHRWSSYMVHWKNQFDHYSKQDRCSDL

Human alphaherpesvirus 2 [19] = assay: Antiviral activity against HSV-2 infected in African green monkey Vero cells assessed as reduction in plague formation at 5 uM measured after 48 hrs by crystal violet staining based plaque formation assay; type: functional, organism-based

Which results are given for `COc1c(-c2ccc(O)cc2)cc(O)c(-c2ccc(O)c(O)c2)c1O`?
EC50 (Human alphaherpesvirus 1 [1]): 1.8 µM; CC50 at 72 h [2]: > 100 µM; selectivity ratio (HSV-1): > 54.4; EC50 (Human alphaherpesvirus 2 [3]): 2.3 µM; selectivity ratio (HSV-2): > 43.7

For `O=C1C(c2ccc(O)cc2)=CC(=O)c2c1oc1cc(O)c(O)cc21`, which EC50 (Human alphaherpesvirus 1 [1]) is on record?
Its EC50 is greater than 20 µM.

And the EC50 (Human alphaherpesvirus 2 [3])?
Its EC50 is greater than 20 µM.

Which EC50 (Human alphaherpesvirus 1 [1]) does the source give for `Nc1nc2c(ncn2COCCO)c(=O)[nH]1` [ACYCLOVIR] here?
The EC50 was 3.6 µM.

What about the CC50 at 72 h [2] of the same compound?
Its CC50 at 72 h is greater than 100 µM.

What about the selectivity ratio (HSV-1) of the same compound?
Its selectivity ratio is greater than 27.9.

And the EC50 (Human alphaherpesvirus 2 [3])?
The EC50 was 4.6 µM.

And the selectivity ratio (HSV-2)?
Its selectivity ratio is greater than 21.9.

Which results are given for `O=c1cc(-c2ccc(O)c(O)c2)c(-c2ccc(O)c(O)c2)co1`?
EC50 (Human alphaherpesvirus 1 [1]): 9.3 µM; CC50 at 72 h [2]: > 100 µM; selectivity ratio (HSV-1): > 10.8; EC50 (Human alphaherpesvirus 2 [3]): 8.5 µM; selectivity ratio (HSV-2): > 11.7

For `COc1c(-c2ccc(O)cc2)cc2oc3cc(O)c(O)cc3c2c1O`, which Activity (Dengue virus) is on record?
The Activity was “inactive”.

And the Activity (Human alphaherpesvirus 1 [4])?
The Activity was “Active”.

And the Activity (Human alphaherpesvirus 1 [5])?
The Activity was “Active”.

What about the EC50 (Human alphaherpesvirus 1 [1]) of the same compound?
Its EC50 is 2.2 µM.

What about the CC50 at 72 h [2] of the same compound?
The CC50 at 72 h was greater than 100 µM.

What about the selectivity ratio (HSV-1) of the same compound?
Its selectivity ratio is greater than 45.7.

What about the EC50 (Human alphaherpesvirus 2 [3]) of the same compound?
Its EC50 is 1.4 µM.

What about the selectivity ratio (HSV-2) of the same compound?
Its selectivity ratio is greater than 73.5.

And the Activity (Human alphaherpesvirus 1 [6])?
The Activity was “Dose-Dependent Effect”.

And the Activity (Human alphaherpesvirus 2 [7])?
Its Activity is “Dose-Dependent Effect”.

What about the Activity (Human alphaherpesvirus 1 [8]) of the same compound?
The Activity was “Active”.

What about the Activity (Human alphaherpesvirus 2 [9]) of the same compound?
The Activity was “Active”.

And the Activity (Human alphaherpesvirus 1 [10])?
Its Activity is “Dose-Dependent Effect”.

And the Activity (Human alphaherpesvirus 1 [11])?
Its Activity is “Dose-Dependent Effect”.

What about the Activity (Human alphaherpesvirus 2 [12]) of the same compound?
Its Activity is “Dose-Dependent Effect”.

And the Activity (Human alphaherpesvirus 2 [13])?
Its Activity is “Dose-Dependent Effect”.

What about the Activity (Human alphaherpesvirus 1 [14]) of the same compound?
The Activity was “Active”.

And the Activity (Human alphaherpesvirus 2 [15])?
The Activity was “Active”.

And the Activity (Human alphaherpesvirus 2 [16])?
The Activity was “Active”.

What about the Activity (Human alphaherpesvirus 2 [17]) of the same compound?
Its Activity is “Active”.

And the Activity (Zika virus)?
The Activity was “inactive”.

What about the inhibition [18] of the same compound?
The inhibition was “inactive”.

And the IC50 (Acetylcholinesterase)?
Its IC50 is 16 µM.

What about the Activity (Human alphaherpesvirus 2 [19]) of the same compound?
The Activity was “Active”.

For `COc1c(-c2ccc(O)c(O)c2)cc(O)c2c1oc1cc(O)c(O)cc12` [6'-DESMETHYLCANDIDUSIN B], which EC50 (Human alphaherpesvirus 1 [1]) is on record?
Its EC50 is 4.1 µM.

What about the CC50 at 72 h [2] of the same compound?
Its CC50 at 72 h is greater than 100 µM.

What about the selectivity ratio (HSV-1) of the same compound?
Its selectivity ratio is greater than 24.4.

And the EC50 (Human alphaherpesvirus 2 [3])?
The EC50 was 2.1 µM.

What about the selectivity ratio (HSV-2) of the same compound?
The selectivity ratio was greater than 48.5.

With `COc1c(-c2ccc(O)c(O)c2)cc2oc3cc(O)c(O)cc3c2c1O` as the compound, how does the EC50 (Human alphaherpesvirus 1 [1]) read?
The EC50 was 4.3 µM.

And the CC50 at 72 h [2]?
Its CC50 at 72 h is greater than 100 µM.

And the selectivity ratio (HSV-1)?
Its selectivity ratio is greater than 23.

And the EC50 (Human alphaherpesvirus 2 [3])?
Its EC50 is 2.4 µM.

What about the selectivity ratio (HSV-2) of the same compound?
Its selectivity ratio is greater than 41.5.

Which EC50 (Human alphaherpesvirus 1 [1]) does the source give for `COc1c(-c2ccc(O)c(O)c2)cc(O)c(-c2ccc(O)c(O)c2)c1O` here?
The EC50 was 3.8 µM.

What about the CC50 at 72 h [2] of the same compound?
Its CC50 at 72 h is greater than 100 µM.

What about the selectivity ratio (HSV-1) of the same compound?
The selectivity ratio was greater than 26.5.

What about the EC50 (Human alphaherpesvirus 2 [3]) of the same compound?
Its EC50 is 4.2 µM.

What about the selectivity ratio (HSV-2) of the same compound?
Its selectivity ratio is greater than 23.8.

Which EC50 (Human alphaherpesvirus 1 [1]) does the source give for `COC(=O)c1cc(O)cc(OC)c1C(=O)c1c(O)cc(C)cc1O` [SULOCHRIN] here?
Its EC50 is greater than 20 µM.

What about the EC50 (Human alphaherpesvirus 2 [3]) of the same compound?
The EC50 was greater than 20 µM.

Which EC50 (Human alphaherpesvirus 1 [1]) does the source give for `COc1c(-c2ccc(O)cc2)cc(O)c2c1oc1cc(O)c(O)cc12` here?
The EC50 was 4.1 µM.

What about the CC50 at 72 h [2] of the same compound?
Its CC50 at 72 h is greater than 100 µM.

What about the selectivity ratio (HSV-1) of the same compound?
The selectivity ratio was greater than 24.7.

What about the EC50 (Human alphaherpesvirus 2 [3]) of the same compound?
The EC50 was 6.5 µM.

And the selectivity ratio (HSV-2)?
Its selectivity ratio is greater than 15.4.
